Converted amounts (≈) assume the structure as drawn.
Tested on: Acinetobacter baumannii
Test: Ratio of MBC to MIC for Acinetobacter baumannii ATCC BAA 1747 clinical isolates
Format: functional
Details: not given

| Compound | Ratio |
| --- | --- |
| C/C(=N\NC1=NCCN1)c1cnn(-c2ccc(C#CC3CCCC3)cc2)c1C | >=1 |

Tested on: not listed separately
Test: Antibacterial activity against Enterobacter cloacae subsp. cloacae ATCC BAA-1143 clinical isolates after 18 to 20 hrs in aerobic condition by CLSI-based broth microdilution assay
Format: functional
Details: not given

| Compound | MIC [µg/mL] |
| --- | --- |
| C/C(=N\NC1=NCCN1)c1cnn(-c2ccc(C#CC3CCCC3)cc2)c1C | 32 (≈ 85.4 µM) |

Tested on: Staphylococcus aureus
Test: Antibacterial activity against linezolid-resistant/Methicillin-resistant Staphylococcus aureus NRS119 clinical isolates after 18 to 20 hrs in aerobic condition by CLSI protocol based broth microdilution assay
Format: functional
Details: not given

| Compound | MIC [µg/mL] |
| --- | --- |
| C/C(=N\NC1=NCCN1)c1cnn(-c2ccc(C#CC3CCCC3)cc2)c1C | 4 (≈ 10.7 µM) |

Tested on: Staphylococcus aureus
Test: Antibacterial activity against vancomycin-resistant Staphylococcus aureus isolate 12 after 18 to 20 hrs in aerobic condition by CLSI-based broth microdilution assay
Format: functional
Details: not given

| Compound | MIC [µg/mL] |
| --- | --- |
| C/C(=N\NC1=NCCN1)c1cnn(-c2ccc(C#CC3CCCC3)cc2)c1C | 4 (≈ 10.7 µM) |

Tested on: Staphylococcus aureus
Test: Ratio of MBC to MIC for Methicillin-sensitive Staphylococcus aureus ATCC 6538 clinical isolates
Format: functional
Details: not given

| Compound | Ratio |
| --- | --- |
| C/C(=N\NC1=NCCN1)c1cnn(-c2ccc(C#CC3CCCC3)cc2)c1C | <=2 |

Tested on: Pseudomonas aeruginosa
Test: Ratio of MBC to MIC for Pseudomonas aeruginosa ATCC 15442 clinical isolates
Format: functional
Details: not given

| Compound | Ratio |
| --- | --- |
| C/C(=N\NC1=NCCN1)c1cnn(-c2ccc(C#CC3CCCC3)cc2)c1C | >=1 |

Tested on: Enterococcus faecium
Test: Antibacterial activity against vancomycin-resistant Enterococcus faecium ATCC 700221 clinical isolates after 18 to 20 hrs in aerobic condition by CLSI-based broth microdilution assay
Format: functional
Details: not given

| Compound | MIC [µg/mL] |
| --- | --- |
| C/C(=N\NC1=NCCN1)c1cnn(-c2ccc(C#CC3CCCC3)cc2)c1C | 4 (≈ 10.7 µM) |

Tested on: Klebsiella pneumoniae
Test: Ratio of MBC to MIC for Klebsiella pneumoniae BAA-1144 clinical isolates
Format: functional
Details: not given

| Compound | Ratio |
| --- | --- |
| C/C(=N\NC1=NCCN1)c1cnn(-c2ccc(C#CC3CCCC3)cc2)c1C | >=1 |

Tested on: Escherichia coli
Test: Antibacterial activity against carbapenem-resistant Escherichia coli BAA-2452 clinical isolates after 18 to 20 hrs in aerobic condition by CLSI-based broth microdilution assay
Format: functional
Details: not given

| Compound | MIC [µg/mL] |
| --- | --- |
| C/C(=N\NC1=NCCN1)c1cnn(-c2ccc(C#CC3CCCC3)cc2)c1C | 16 (≈ 42.7 µM) |

Tested on: Shigella flexneri
Test: Ratio of MBC to MIC for Shigella flexneri ATCC 9199 clinical isolates
Format: functional
Details: not given

| Compound | Ratio |
| --- | --- |
| C/C(=N\NC1=NCCN1)c1cnn(-c2ccc(C#CC3CCCC3)cc2)c1C | >=1 |

Tested on: Staphylococcus aureus
Test: Antibacterial activity against Methicillin-resistant Staphylococcus aureus USA700-NRS386 clinical isolates after 18 to 20 hrs in aerobic condition by CLSI protocol based broth microdilution assay
Format: functional
Details: not given

| Compound | MIC [µg/mL] |
| --- | --- |
| C/C(=N\NC1=NCCN1)c1cnn(-c2ccc(C#CC3CCCC3)cc2)c1C | 4 (≈ 10.7 µM) |

Tested on: Staphylococcus aureus
Test: Antibacterial activity against Methicillin-sensitive Staphylococcus aureus ATCC 6538 clinical isolates after 18 to 20 hrs in aerobic condition by CLSI protocol based broth microdilution assay
Format: functional
Details: not given

| Compound | MIC [µg/mL] |
| --- | --- |
| C/C(=N\NC1=NCCN1)c1cnn(-c2ccc(C#CC3CCCC3)cc2)c1C | 1 (≈ 2.67 µM) |

Tested on: Acinetobacter baumannii
Test: Antibacterial activity against Acinetobacter baumannii ATCC BAA 1141 clinical isolates after 18 to 20 hrs in aerobic condition by CLSI-based broth microdilution assay
Format: functional
Details: not given

| Compound | MIC [µg/mL] |
| --- | --- |
| C/C(=N\NC1=NCCN1)c1cnn(-c2ccc(C#CC3CCCC3)cc2)c1C | 16 (≈ 42.7 µM) |

Tested on: Salmonella enterica
Test: Ratio of MBC to MIC for Salmonella enterica NR-170 clinical isolates
Format: functional
Details: not given

| Compound | Ratio |
| --- | --- |
| C/C(=N\NC1=NCCN1)c1cnn(-c2ccc(C#CC3CCCC3)cc2)c1C | >=1 |

Tested on: Salmonella enteritidis
Test: Antibacterial activity against Salmonella enteritidis ATCC 14028 clinical isolates after 18 to 20 hrs in aerobic condition by CLSI-based broth microdilution assay
Format: functional, Salmonella enterica subsp. enterica serovar Enteritidis
Details: Salmonella enterica

| Compound | MIC [µg/mL] |
| --- | --- |
| C/C(=N\NC1=NCCN1)c1cnn(-c2ccc(C#CC3CCCC3)cc2)c1C | 32 (≈ 85.4 µM) |

Tested on: Acinetobacter baumannii
Test: Antibacterial activity against Acinetobacter baumannii ATCC 19606 clinical isolates after 18 to 20 hrs in aerobic condition by CLSI-based broth microdilution assay
Format: functional
Details: ATCC 19606 = CIP 70.34 = JCM 6841

| Compound | MIC [µg/mL] |
| --- | --- |
| C/C(=N\NC1=NCCN1)c1cnn(-c2ccc(C#CC3CCCC3)cc2)c1C | 16 (≈ 42.7 µM) |

Tested on: Acinetobacter baumannii
Test: Ratio of MBC to MIC for Acinetobacter baumannii NR 17786 clinical isolates
Format: functional
Details: not given

| Compound | Ratio |
| --- | --- |
| C/C(=N\NC1=NCCN1)c1cnn(-c2ccc(C#CC3CCCC3)cc2)c1C | >=1 |

Tested on: Klebsiella pneumoniae
Test: Ratio of MBC to MIC for Klebsiella pneumoniae BAA-1706 after 18 to 20 hrs in aerobic condition by CLSI-based broth microdilution assay
Format: functional
Details: not given

| Compound | Ratio |
| --- | --- |
| C/C(=N\NC1=NCCN1)c1cnn(-c2ccc(C#CC3CCCC3)cc2)c1C | >=1 |

Tested on: Klebsiella pneumoniae
Test: Antibacterial activity against Klebsiella pneumoniae BAA-1144 clinical isolates after 18 to 20 hrs in aerobic condition by CLSI-based broth microdilution assay
Format: functional
Details: not given

| Compound | MIC [µg/mL] |
| --- | --- |
| C/C(=N\NC1=NCCN1)c1cnn(-c2ccc(C#CC3CCCC3)cc2)c1C | 64 (≈ 171 µM) |

Tested on: Listeria monocytogenes
Test: Antibacterial activity against Listeria monocytogenes ATCC 19111 after 18 to 20 hrs in aerobic condition by CLSI-based broth microdilution assay
Format: functional
Details: not given

| Compound | MIC [µg/mL] |
| --- | --- |
| C/C(=N\NC1=NCCN1)c1cnn(-c2ccc(C#CC3CCCC3)cc2)c1C | 4 (≈ 10.7 µM) |

Tested on: Pseudomonas aeruginosa
Test: Ratio of MBC to MIC for Pseudomonas aeruginosa ATCC 25619 clinical isolates
Format: functional
Details: not given

| Compound | Ratio |
| --- | --- |
| C/C(=N\NC1=NCCN1)c1cnn(-c2ccc(C#CC3CCCC3)cc2)c1C | >=1 |

Tested on: Staphylococcus aureus
Test: Ratio of MBC to MIC for Methicillin-sensitive Staphylococcus aureus NRS107 clinical isolates
Format: functional
Details: not given

| Compound | Ratio |
| --- | --- |
| C/C(=N\NC1=NCCN1)c1cnn(-c2ccc(C#CC3CCCC3)cc2)c1C | <=2 |

— ChEMBL document CHEMBL4334464, “From Phenylthiazoles to Phenylpyrazoles: Broadening the Antibacterial Spectrum toward Carbapenem-Resistant Bacteria” (J Med Chem, 2019)
